The record followed here is patent US20210300873A1 (Clear Creek Bio, Inc., priority 2020, published 2021).

Counter-ions that a name gives are not always drawn. Like-named read-outs stand apart in the source and are kept apart here.

This series is classed as physicochemical. Particulars: sodium salt; for Stability of the polymorphic form (in words): storage, ambient condition (temperature and humidity) or closed cap.

As for `Cc1c(-c2ccc(-c3ccccc3F)cc2)nc2ccc(F)cc2c1C(=O)O` [Pattern A, brequinar sodium salt], the “Stability of the polymorphic form (in words)” value (“Stability” for short) was “metastable”.

As for `Cc1c(-c2ccc(-c3ccccc3F)cc2)nc2ccc(F)cc2c1C(=O)O` [Pattern B, brequinar sodium salt], the “Time after which the form converts to Pattern C” value (“Time” below) (ambient condition) is reported as “Pattern C after 4 days at ambient”.

In the case of `Cc1c(-c2ccc(-c3ccccc3F)cc2)nc2ccc(F)cc2c1C(=O)O` [Pattern C, 6-Flouro-2-(2′-fluoro-1,1′-biphenyl-4-yl)-3-methyl-4-quinolinecarboxylic acid sodium salt], for the setting “listed as polymorphic form C”, the “Stability” value was “stable”.

With `Cc1c(-c2ccc(-c3ccccc3F)cc2)nc2ccc(F)cc2c1C(=O)O` [Pattern D, brequinar sodium salt], the “Stability” value was “unstable”. The “Time” value (ambient condition) is recorded as “to Pattern C after 3 days at ambient”.

On to `Cc1c(-c2ccc(-c3ccccc3F)cc2)nc2ccc(F)cc2c1C(=O)O` [Pattern E, brequinar sodium salt], for which the “Time” value (closed cap storage) is “Pattern C after 1 week (closed cap weeks”.

In the case of `Cc1c(-c2ccc(-c3ccccc3F)cc2)nc2ccc(F)cc2c1C(=O)O` [Pattern F, brequinar sodium salt], the “Time” value (closed cap storage) is on record as “Pattern C after 1 week (closed cap weeks”.

As for `Cc1c(-c2ccc(-c3ccccc3F)cc2)nc2ccc(F)cc2c1C(=O)O` [Pattern G, brequinar sodium salt], the “Time” value (ambient condition) is listed as “to Pattern C after 2 weeks at ambient”.

As to `Cc1c(-c2ccc(-c3ccccc3F)cc2)nc2ccc(F)cc2c1C(=O)O` [Pattern I, brequinar sodium salt], the “Stability” value is on record as “unstable”. Besides, the “Time” value (ambient condition) is 2 days.

`Cc1c(-c2ccc(-c3ccccc3F)cc2)nc2ccc(F)cc2c1C(=O)O` [Pattern J, brequinar sodium salt]: for the setting “closed cap storage”, the “Time” value is on record as 2 weeks.
